{"source": "patent US20080161398A1", "about": "“STIMULATION OF IN VIVO PRODUCTION OF PROTEINS” (Nutricia N.V., priority 2002, published 2008)", "system": "mixed muscle protein synthesis", "experiment": "Fractional synthetic rate of mixed muscle protein synthesis in anaesthetized rats after intravenous infusion of amino acid compositions", "format": "in vivo", "protocol": "Four groups of anaesthetized rats were given an amino acid composition. The same total amount of amino acids was given to each group by intravenous infusion. A fifth group was added to the study as a control group. The first group was given a balanced mixture of amino acids, commercially available under the trade name Travasol. This mixture contains less than 5% leucine. The second group was given 75% of Travasol and 25% of leucine. The third group was given 65% of Travasol and 35% of leucine, and the fourth group was given only leucine. The in fractional synthetic rate of mixed muscle protein synthesis (FSR (%/h)) was measured as described by Ferrando et al., Am. J. Physiol., 275:E864-E871, 1998, the contents of which are incorporated herein by reference.", "data": [{"smiles": "CC(C)C[C@H](N)C(=O)O", "note": "[Leucine alone, leucine]", "values": [{"measurement": "response in protein production", "setting": "administration of L-leucine alone, as shown in the appended examples", "value": "does not induce the desired response in protein production"}, {"measurement": "FSR (%/h), fractional synthetic rate of mixed muscle protein synthesis", "setting": "anaesthetized rats, intravenous infusion, same total amount of amino acids given to each group", "value": "0.0767 ± 0.0204", "unit": "%/h"}]}]}
